The values that follow come from article PMC7321072, “Bioactive Potential of Extracts of Labrenzia aggregata Strain USBA 371, a Halophilic Bacterium Isolated from a Terrestrial Source” (Molecules, 2020).

Each structure is given as a SMILES string. Like-named read-outs stand apart in the source and are kept apart here.

Format in all cases: cell-based
One data set concerns B16 (murine melanoma). Briefly: Cytotoxic activity, neutral red assay, B16. Particulars: mean ± SEM, read-out: Cytotoxic Activity of Fractions IC50. How it is done: (§1) The isolated compounds were resuspended in dimethyl sulfoxide (DMSO) to a final concentration of 25 mg/mL (stock solution), subsequent dilutions between 250 and 31 μg/mL were used for cytotoxicity assays. The cytotoxic activity was determined by neutral red assay, initially against the adherent cell lines 4T1 (mouse mammary tumor) and MCF-7 (human mammary adenocarcinoma) followed by H17 y TSA (murine breast cancer), MES SA PGP (+) y MES SA PGP (–) (human uterus sarcome), B16 (murine melanoma), MCA 38 (murine colon), 3T3 (murine fibroblats) y K562-ATCC, U937 y HL-60/MX2 (myeloid acute leukemia cell line) as described by Díaz-Cárdenas et al., 2017 [15]. When cultures reached a confluence of 80%, cells were passaged and counted in a Neubauer chamber. Cell viability was estimated in triplicate using the trypan blue assay. The percentage of viability was calculated as absorbance of the vehicle/absorbance of the treatment per 100. […] IC50 values were calculated with three or four parameter nonlinear regression curves using GraphPad Prism software (GraphPad Software, Inc., San Diego, CA, USA). […] The selectivity index was calculated using the formula: IC50 Fibroblasts/IC50 tumor cell. […]
(§2) The solvent used in the reconstitution of the extract (DMSO) was evaluated as a negative control for each test in the same volume as the extracts. […]

Data set [1] relates to U937 (myeloid acute leukemia). Nature of the data set: Cytotoxic activity, neutral red assay, U937. How it is done: as §1, §2
In data set [2] the test system is MCF-7 (human mammary adenocarcinoma). Nature of the data set: Cytotoxic activity, neutral red assay, MCF-7. To be noted: mean ± SEM. The protocol:
(§3) The isolated compounds were resuspended in dimethyl sulfoxide (DMSO) to a final concentration of 25 mg/mL (stock solution), subsequent dilutions between 250 and 31 μg/mL were used for cytotoxicity assays. The cytotoxic activity was determined by neutral red assay, initially against the adherent cell lines 4T1 (mouse mammary tumor) and MCF-7 (human mammary adenocarcinoma) followed by H17 y TSA (murine breast cancer), MES SA PGP (+) y MES SA PGP (–) (human uterus sarcome), B16 (murine melanoma), MCA 38 (murine colon), 3T3 (murine fibroblats) y K562-ATCC, U937 y HL-60/MX2 (myeloid acute leukemia cell line) as described by Díaz-Cárdenas et al., 2017 [15]. When cultures reached a confluence of 80%, cells were passaged and counted in a Neubauer chamber. Cell viability was estimated in triplicate using the trypan blue assay. The percentage of viability was calculated as absorbance of the vehicle/absorbance of the treatment per 100. Inhibitory concentration 50 (IC50) values were defined as the concentration of the extracts that generated 50% inhibition of tumor cell growth. IC50 values were calculated with three or four parameter nonlinear regression curves using GraphPad Prism software (GraphPad Software, Inc., San Diego, CA, USA). IC50 values are presented as the mean ± standard error of mean (SEM). The selectivity index was calculated using the formula: IC50 Fibroblasts/IC50 tumor cell. A potential against tumor cell lines was considered when the selectivity was greater than 1.
(§4) The solvent used in the reconstitution of the extract (DMSO) was evaluated as a negative control for each test in the same volume as the extracts. Doxorubicin at a maximum concentration of 5 μM was used as a positive control.

The test system of another data set is 3T3 (murine fibroblast). Briefly: Cytotoxic activity, neutral red assay, 3T3 normal fibroblasts. To be noted: 3T3, murine fibroblast (normal cells); mean ± SEM; read-out: Cytotoxic Activity of Fractions IC50. How it is done:
as §1, §2

Data set [3] concerns TSA (murine breast cancer). Briefly: Cytotoxic activity, neutral red assay, TSA. To be noted: mean ± SEM, read-out: Cytotoxic Activity of Fractions IC50. The protocol: as §1, §2
The subject of data set [4] is K562 (myeloid acute leukemia). Briefly: Cytotoxic activity, neutral red assay, K562. How it is done:
as §1, §2

A further data set has as its system MCA 38 (murine colon). Nature of the data set: Cytotoxic activity, neutral red assay, MCA 38. To be noted: mean ± SEM. The protocol:
as §1, §2

Data set [5] concerns MES–SA/DX5P-Pgp (+) (human uterus sarcome). Briefly: Cytotoxic activity, neutral red assay, MES-SA/DX5 Pgp (+). The protocol:
as §1, §2

The test system of data set [6] is 4T1 (mouse mammary tumor). Nature of the data set: Cytotoxic activity, neutral red assay, 4T1. To be noted: mean ± SEM. How it is done: as §3, §4
Data set [7] deals with 4T1 H17 (murine breast cancer, high ALDH expression). Nature of the data set: Cytotoxic activity, neutral red assay, 4T1 H17. To be noted: mean ± SEM. How it is done:
as §1, §2

Another data set concerns 3LL (lung cancer). Briefly: Cytotoxic activity, neutral red assay, 3LL. Particulars: mean ± SEM.
[8] abbreviates: listed as compound 1, read-out: Cytotoxic Activity of Fractions IC50.
The mark [9] stands for this setting: read-out: Cytotoxic Activity of Fractions IC50.

In general, IC50 refers to the concentration at which inhibition is half-maximal. With `O=C1N[C@@H](Cc2ccc(O)cc2)C(=O)N2CCC[C@@H]12` [Compound 1, cyclo (L-Pro-L-Tyr)], the IC50 with B16 (murine melanoma) is 80.9 ± 3.67 µM; in data set [2] it was 87.7 ± 2.32 µM; in data set [2] (listed as compound 1), less than 88 µM; in the data set with 3T3 (murine fibroblast), 314 ± 3.41 µM; in data set [3], 197 ± 4.18 µM; with MCA 38 (murine colon) (setting [8]) it was less than 40 µM. The IC50 in the data set on MCA 38 (murine colon) (setting [9]) is 29.9 ± 1.55 µM; in data set [5] (MES-SA/DX5 Pgp (+), human uterus sarcoma, mean ± SEM, read-out: Cytotoxic Activity of Fractions IC50) it was 225.3 ± 1.23 µM; in data set [6], 57.1 ± 2.11 µM; in [6] (listed as compound 1), less than 88 µM; in data set [7] (setting [8]) it was less than 40 µM; in data set [7] (setting [9]) it was 40.4 ± 1.94 µM. The IC50 was less than 51.7 µM in the data set on 3LL (lung cancer) (setting [8]) and 51.7 ± 0.55 µM in the data set on 3LL (lung cancer) (setting [9]). Moreover, the “cytotoxic activity (in words)” value in [1] and in data set [4] was “no activity was detected” in each case. In addition, the “Selectivity Index (SI)” value in data set [5] (IC50 fibroblasts (3T3)/IC50 MES-SA/DX5 Pgp (+)) was 1.39.
For the compound `O=C1N[C@@H](Cc2ccc(O)cc2)C(=O)N[C@H]1Cc1ccccc1` [Compound 2, cyclo (L-Tyr-L-Phe)], the IC50 in data set [2] is 890.5 ± 3.45 µM; in data set [2] (listed as compound 2), greater than 250 µM; in data set [6], 875.9 ± 5.14 µM; in data set [6] (listed as compound 2) it was greater than 250 µM.
